Test results taken from ChEMBL document CHEMBL1151084, “Synthesis and biological properties of quaternized N-methylation analogs of D-Arg-2-dermorphin tetrapeptide” (Bioorg Med Chem Lett, 1994).
Where a SMILES comes first, the peptide text is derived from it.

Assays:
Cavia porcellus = species: Cavia porcellus; assay: In vitro bioactivity on electrically induced smooth muscle contraction of guinea pig ileum by GPI assay; format: functional
[1] = molecular target: Delta-type opioid receptor (Rattus norvegicus, UniProt P33533); assay: Binding affinity against delta-opioid receptor by using [3H]DADLE as radioligand in rat brain; format: tissue-based
Mus musculus [2] = assay: In vivo antinociceptive effect in mice by PBQ writhing test upon subcutaneous administration; Range is (0.88-1.56); format: functional; conditions: sc
Mu-type opioid receptor = Mu-type opioid receptor (Rattus norvegicus, UniProt P33535); assay: Binding affinity against mu-opioid receptor by using [3H]DAGO as radioligand in rat brain; format: tissue-based
Mus musculus [3] = assay: In vivo antinociceptive effect in mice by PBQ writhing test upon subcutaneous administration; Range is (1.64-3.24); format: functional; conditions: sc
Mus musculus [4] = assay: In vivo antinociceptive effect in mice by PBQ writhing test upon subcutaneous administration: Range is (0.39-0.59); format: functional; conditions: sc
Mus musculus [5] = assay: In vivo antinociceptive effect in mice by PBQ writhing test upon subcutaneous administration; Range is (0.52-0.741); format: functional; conditions: sc

Chain of Mu-type opioid receptor (P33535 whole entry): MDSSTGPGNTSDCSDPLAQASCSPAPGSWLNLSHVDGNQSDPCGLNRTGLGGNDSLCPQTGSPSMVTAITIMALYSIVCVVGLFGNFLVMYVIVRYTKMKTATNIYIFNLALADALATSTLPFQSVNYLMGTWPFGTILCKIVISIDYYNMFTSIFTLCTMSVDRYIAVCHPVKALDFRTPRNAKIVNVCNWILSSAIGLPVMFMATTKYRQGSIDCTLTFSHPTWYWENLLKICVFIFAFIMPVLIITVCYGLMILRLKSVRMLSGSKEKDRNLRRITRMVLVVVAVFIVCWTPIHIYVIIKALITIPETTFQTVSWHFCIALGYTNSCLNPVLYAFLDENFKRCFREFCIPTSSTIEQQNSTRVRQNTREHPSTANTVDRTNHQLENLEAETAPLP
Chain of Delta-type opioid receptor (P33533 whole entry): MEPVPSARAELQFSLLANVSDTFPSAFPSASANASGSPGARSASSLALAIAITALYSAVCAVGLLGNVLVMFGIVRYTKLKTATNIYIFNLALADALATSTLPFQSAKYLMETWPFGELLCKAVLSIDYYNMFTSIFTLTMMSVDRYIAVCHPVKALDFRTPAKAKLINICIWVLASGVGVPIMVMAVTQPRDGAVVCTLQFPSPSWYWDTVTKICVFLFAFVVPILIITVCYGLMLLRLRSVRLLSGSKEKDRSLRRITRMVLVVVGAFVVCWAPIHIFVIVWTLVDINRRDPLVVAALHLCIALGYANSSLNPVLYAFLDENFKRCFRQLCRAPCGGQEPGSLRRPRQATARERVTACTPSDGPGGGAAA

`C[N+](C)(C)CCCC[C@H](NC(=O)[C@H](Cc1ccccc1)NC(=O)[C@@H](CCCNC(=N)N)NC(=O)[C@@H](N)Cc1ccc(O)cc1)C(N)=O` showed an IC50 (Cavia porcellus) of 0.0919 µM, a Ki [1] of 3.55 µM and an ED50 (Mus musculus [2]) of 1.18 mg/kg. For the same compound, the Ki (Mu-type opioid receptor) was 0.00112 µM.

For `C[N+](C)(C)CC[C@H](NC(=O)[C@H](Cc1ccccc1)NC(=O)[C@H](CCCNC(=N)N)NC(=O)[C@H](Cc1ccc(O)cc1)[N+](C)(C)C)C(N)=O`, the IC50 (Cavia porcellus) was 3.12 µM, the Ki [1] was > 100 µM and the Ki (Mu-type opioid receptor) was 1.3 µM.

Work on `C[N+](C)(C)CC[C@H](NC(=O)[C@H](Cc1ccccc1)NC(=O)[C@H](CCCN=C(N)N)NC(=O)[C@@H](N)Cc1ccc(O)cc1)C(N)=O` yielded an IC50 (Cavia porcellus) of 0.125 µM, a Ki [1] of 5.86 µM and a Ki (Mu-type opioid receptor) of 0.00752 µM.

`C[N+](C)(C)CCC[C@H](NC(=O)[C@H](Cc1ccccc1)NC(=O)[C@@H](CCCN=C(N)N)NC(=O)[C@@H](N)Cc1ccc(O)cc1)C(N)=O` showed an IC50 (Cavia porcellus) of 0.13 µM, an ED50 (Mus musculus [3]) of 2.3 mg/kg and a Ki [1] of 0.45 µM. The Ki (Mu-type opioid receptor) was 0.00235 µM.

For `C[N+](C)(C)[C@@H](Cc1ccc(O)cc1)C(=O)N[C@H](CCCN=C(N)N)C(=O)N[C@@H](Cc1ccccc1)C(=O)N[C@@H](CCCN)C(N)=O`, the IC50 (Cavia porcellus) was > 100 µM, the Ki [1] was > 100 µM and the Ki (Mu-type opioid receptor) was 1.92 µM.

`NCCCC[C@H](NC(=O)[C@H](Cc1ccccc1)NC(=O)[C@@H](CCCN=C(N)N)NC(=O)[C@@H](N)Cc1ccc(O)cc1)C(N)=O` showed an IC50 (Cavia porcellus) of 0.0506 µM, a Ki [1] of 2.36 µM and an ED50 (Mus musculus [4]) of 0.47 mg/kg. The Ki (Mu-type opioid receptor) was 0.00038 µM.

For `C[N+](C)(C)[C@@H](Cc1ccc(O)cc1)C(=O)N[C@H](CCCN=C(N)N)C(=O)N[C@@H](Cc1ccccc1)C(=O)N[C@@H](CCCCN)C(N)=O`, the IC50 (Cavia porcellus) was 2.47 µM, the Ki [1] was > 100 µM and the Ki (Mu-type opioid receptor) was 0.207 µM.

`NC(=O)[C@H](CCNC(=O)[C@H](Cc1ccccc1)NC(=O)[C@H](CCCN=C(N)N)NC(=O)[C@@H](N)Cc1ccc(O)cc1)NC(=O)[C@H](Cc1ccccc1)NC(=O)[C@H](CCCN=C(N)N)NC(=O)[C@@H](N)Cc1ccc(O)cc1` (HELM PEPTIDE1{Y.R.F.[Dab].[am]}|PEPTIDE2{Y.R.F}$PEPTIDE1,PEPTIDE2,4:R3-3:R2$$$V2.0) was tested, and the IC50 (Cavia porcellus) was 0.0142 µM, the ED50 (Mus musculus [5]) was 0.61 mg/kg and the Ki [1] was 0.497 µM. For the same compound, the Ki (Mu-type opioid receptor) was 0.00051 µM.
